Laboratory results reported in US20040138203A1, “Bicyclic lactams and sulfonamides with 5-ht1a -affinity and use thereof for preventing and treating cerebral ischaemia” (priority 2000, published 2004).

Target: T1, cloned human 5-HT1A receptors (Homo sapiens, UniProt P08908)
T1 construct: expressed in transfected cells; host or cells: HEK293 cells, kept under G-418 selection; membranes used
T1 sequence (P08908 1-422): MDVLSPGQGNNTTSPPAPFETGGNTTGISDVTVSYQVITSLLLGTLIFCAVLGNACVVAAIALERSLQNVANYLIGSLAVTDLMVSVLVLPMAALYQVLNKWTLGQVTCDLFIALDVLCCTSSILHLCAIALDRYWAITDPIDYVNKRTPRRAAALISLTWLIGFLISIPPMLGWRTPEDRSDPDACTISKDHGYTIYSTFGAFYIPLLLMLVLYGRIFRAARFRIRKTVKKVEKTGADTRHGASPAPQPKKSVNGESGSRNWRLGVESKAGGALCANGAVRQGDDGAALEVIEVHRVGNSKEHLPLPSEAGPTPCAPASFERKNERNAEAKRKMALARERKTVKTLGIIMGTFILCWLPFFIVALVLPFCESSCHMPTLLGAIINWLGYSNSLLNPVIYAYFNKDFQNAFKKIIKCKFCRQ
Experiment: 5-HT1A binding assay using membranes from 5-HT1A receptor-expressing HEK293 cells (3H-8-OH-DPAT displacement)
Conditions: 3H-8-OH-DPAT 0.15 nM, HEK293 cell membranes, 90 min at 22° C.
Procedure: The following test arrangement was used for determining the receptor binding affinity:
5-HT1A binding assay using membranes from 5-HT1A receptor-expressing HEK293 cells
Culturing 5-HT1A receptor-expressing HEK293 cells 5-HT1A-expressing HEK293 cells are cultured, at 37° C. and in a 5% CO2 atmosphere, in RPMI/Glutamax medium (RPMI 1640, 25 mM Hepes, 2 mM Glutamax, 10% FCS, 2 mM glutamine, penicillin/streptomycin (100 IU/ml each), geneticin G-418 sulfate, 400 mg/l, NaHCO3, 1.2 g/l) in culture flasks (T-175 triple flasks). After confluence has been reached, the medium is removed and the flasks are filled with 15 ml of sterile PBS (phosphate-buffered saline). The cells are detached by incubating them for 10 minutes (incubator, 37° C.) with a trypsin solution (0.05% trypsin, 0.0004% EDTA, 0.02% EGTA, 2.682 mM KCl, 1.47 mM KH2PO4, 6.46 mM NaHPO4, 136.89 mM NaCl). The detachment of the cells is promoted by knocking on the bottom of the flask. After having been transferred into 50 ml tubes (Greiner), the cells are centrifuged at 250×g at room temperature. The supernatant is discarded and the cells are resuspended in 10 ml of medium. The cells are aliquoted once again into culture flasks and cultured for a further 5 to 6 days until the membranes are prepared.
Preparing the Membranes from 5-HT1A Receptor-Expressing HEK293 Cells
The supernatants are removed from the cells and the culture flasks are filled with PBS. The cells are then incubated for 10 minutes with a trypsin solution (for composition see above). The detachment of the cells is promoted by knocking on the bottom of the flask. The cell suspension is removed and the remaining cells are likewise taken up in PBS by washing the culture flasks twice with PBS. The combined cell suspension is aliquoted into […] and centrifuged at 250×g and 4° C. for 10 minutes. The supernatants are discarded and the cells in the pellet are resuspended in PBS. 20 μl of the cell suspension are removed and the cell density is determined. The cells are centrifuged once again at 250×g (4° C.) for 10 minutes, after which the supernatant is discarded and the cells in the pellet are homogenized in 50 mM tris-HCl, pH 7.4 (1 ml/10^8 cells) using an Ultra-Turrax (30 sec).
The homogenate is aliquoted into cryotubes (1 ml/cryotube) and stored in liquid nitrogen until used in the binding assay.
The frozen membranes are thawed at 37° C., after which they are centrifuged at 48000*g (20 minutes) and then resuspended in binding buffer (50 mM Tris-HCl, pH 7.4, 5 mM CaCl2). An incubation assay mixture contains membrane material from […], 0.15 pmol (=0.15 nM) of 3H-8-OH-DPAT, and the substances to be tested, in a total of 1 ml of binding buffer. Nonspecific binding is determined in the presence of 10^−5 M 5-carboxamidotryptamine. Following a 90-minute incubation at 22° C., bound and free ligand are separated from each other by filtering through […] and subsequently washing with from 5 to 9 ml of ice-cold binding buffer. Before use, the GF/B filters are treated for at least 2 hours with 0.3% polyethylenimine. Following filtration, from 3 to 4 ml of Packard Ultima Gold XR are added to the filters and the radioactivity is determined by liquid scintillation counting in a Packard Tricarb.
Evaluating the Data from the 5-HT1A Binding Assay
The displacement curves are analyzed by nonlinear regression using a modified version of the “Ligand” program of Munson & Rodbard (Anal. Biochem., 107, 220 (1980)). The value of the theoretical nonspecific binding is assessed to be the theoretical binding of radioligand at infinitely high ligand concentration. In this connection, the measured values for the nonspecific binding are treated as data points of the displacement curve which correspond to experimental points at an infinitely high ligand concentration. […]

SMILES | Ki
Cc1cccc(N2CCN(CCN3Cc4ccccc4S3(=O)=O)CC2)n1 [Example 10, 2-[2-(4-(6-Methyl-2-pyridinyl)-1-piperazinyl)ethyl]-2,3-dihydro-1,2-benzisothiazole 1,1-dioxide] | 0.5 nM
O=C1Cc2ccccc2N1CCN1CCN(c2cccc(C(F)(F)F)c2)CC1 [Example 5, 1-[2-(4-(3-Trifluoromethylphenyl)-1-piperazinyl)ethyl]-1,3-dihydro-2H-indol-2-one] | 2.9 nM
O=C1Cc2ccccc2N1CCN1CCN(c2nccc3ccccc23)CC1 [Example 19, 1-[2-(4-(1-Isoquinolinyl)-1-piperazinyl)ethyl]-1,3-dihydro-2H-indol-2-one] | 0.7 nM
O=S1(=O)c2ccccc2CN1CCN1CCN(c2cccc(C(F)(F)F)c2)CC1 [Example 13, 2-[2-(4-(3-Trifluoromethylphenyl)-1-piperazinyl)ethyl]-2,3-dihydro-1,2-benzisothiazole 1,1-dioxide] | 1 nM
Cc1cccc(N2CCN(CCN3Cc4ccccc4C3=O)CC2)n1 [Example 4, 2-[2-(4-(6-Methyl-2-pyridinyl)-1-piperazinyl)-ethyl]-1-isoindolinone] | 2.6 nM

Second part, the molecule after the results:

Ki | SMILES
1.6 nM | O=S1(=O)c2ccccc2CN1CCN1CCN(c2nccc3ccccc23)CC1 [Example 3, 2-[2-(4-(1-Isoquinolinyl)-1-piperazinyl)-ethyl]-2,3-dihydro-1,2-benzisothiazole 1,1-dioxide]
5.4 nM | O=C1c2ccccc2CN1CCN1CCN(c2nccc3ccccc23)CC1 [Example 22, 2-[2-(4-(1-Isoquinolinyl)-1-piperazinyl)ethyl]-1-isoindolinone]
0.6 nM | O=c1c2ccccc2ccn1CCN1CCN(c2nccc3ccccc23)CC1 [Example 2, 2-[2-(4-(1-Isoquinolinyl)-1-piperazinyl)-ethyl]-1(2H)-isoquinolinone]
0.1 nM | O=S1(=O)c2ccccc2CN1CCN1CCN(c2cccc3ccccc23)CC1 [Example 8, 2-[2-(4-(1-Naphthyl)-1-piperazinyl)ethyl]-2,3-dihydro-1,2-benzisothiazole 1,1-dioxide]
0.6 nM | O=C1c2ccccc2CCN1CCN1CCN(c2nccc3ccccc23)CC1 [Example 1, 2-[2-(4-(1-Isoquinolinyl)-1-piperazinyl)ethyl]-3,4-dihydro-1(2H)-isoquinolinone]
2.4 nM | O=c1ccc2ccccc2n1CCN1CCN(c2nccc3ccccc23)CC1 [Example 7, 1-[2-(4-(1-Isoquinolinyl)-1-piperazinyl)-ethyl]-2(1H)-quinolinone]
4.1 nM | O=C1CCc2ccccc2N1CCN1CCN(c2nccc3ccccc23)CC1 [Example 6, 1-[2-(4-(1-Isoquinolinyl)-1-piperazinyl)-ethyl]-3,4-dihydro-2(1H)-quinolinone]
